The results in this text go back to patent US6440995B1, “Quinolin-4-yl derivatives” (Hoffman-La Roche Inc., priority 1999, dated 2002).

Broadly, the melting point is the temperature of the solid-liquid transition. Broadly, the IC50 is the concentration that gives 50% inhibition. A lower IC50 goes with inhibition by little substance.

The structures appear in SMILES notation. Where a name gives a salt, the structure may show the parent alone.

T1 sequence (Q00960 27-1482, other chains not shown): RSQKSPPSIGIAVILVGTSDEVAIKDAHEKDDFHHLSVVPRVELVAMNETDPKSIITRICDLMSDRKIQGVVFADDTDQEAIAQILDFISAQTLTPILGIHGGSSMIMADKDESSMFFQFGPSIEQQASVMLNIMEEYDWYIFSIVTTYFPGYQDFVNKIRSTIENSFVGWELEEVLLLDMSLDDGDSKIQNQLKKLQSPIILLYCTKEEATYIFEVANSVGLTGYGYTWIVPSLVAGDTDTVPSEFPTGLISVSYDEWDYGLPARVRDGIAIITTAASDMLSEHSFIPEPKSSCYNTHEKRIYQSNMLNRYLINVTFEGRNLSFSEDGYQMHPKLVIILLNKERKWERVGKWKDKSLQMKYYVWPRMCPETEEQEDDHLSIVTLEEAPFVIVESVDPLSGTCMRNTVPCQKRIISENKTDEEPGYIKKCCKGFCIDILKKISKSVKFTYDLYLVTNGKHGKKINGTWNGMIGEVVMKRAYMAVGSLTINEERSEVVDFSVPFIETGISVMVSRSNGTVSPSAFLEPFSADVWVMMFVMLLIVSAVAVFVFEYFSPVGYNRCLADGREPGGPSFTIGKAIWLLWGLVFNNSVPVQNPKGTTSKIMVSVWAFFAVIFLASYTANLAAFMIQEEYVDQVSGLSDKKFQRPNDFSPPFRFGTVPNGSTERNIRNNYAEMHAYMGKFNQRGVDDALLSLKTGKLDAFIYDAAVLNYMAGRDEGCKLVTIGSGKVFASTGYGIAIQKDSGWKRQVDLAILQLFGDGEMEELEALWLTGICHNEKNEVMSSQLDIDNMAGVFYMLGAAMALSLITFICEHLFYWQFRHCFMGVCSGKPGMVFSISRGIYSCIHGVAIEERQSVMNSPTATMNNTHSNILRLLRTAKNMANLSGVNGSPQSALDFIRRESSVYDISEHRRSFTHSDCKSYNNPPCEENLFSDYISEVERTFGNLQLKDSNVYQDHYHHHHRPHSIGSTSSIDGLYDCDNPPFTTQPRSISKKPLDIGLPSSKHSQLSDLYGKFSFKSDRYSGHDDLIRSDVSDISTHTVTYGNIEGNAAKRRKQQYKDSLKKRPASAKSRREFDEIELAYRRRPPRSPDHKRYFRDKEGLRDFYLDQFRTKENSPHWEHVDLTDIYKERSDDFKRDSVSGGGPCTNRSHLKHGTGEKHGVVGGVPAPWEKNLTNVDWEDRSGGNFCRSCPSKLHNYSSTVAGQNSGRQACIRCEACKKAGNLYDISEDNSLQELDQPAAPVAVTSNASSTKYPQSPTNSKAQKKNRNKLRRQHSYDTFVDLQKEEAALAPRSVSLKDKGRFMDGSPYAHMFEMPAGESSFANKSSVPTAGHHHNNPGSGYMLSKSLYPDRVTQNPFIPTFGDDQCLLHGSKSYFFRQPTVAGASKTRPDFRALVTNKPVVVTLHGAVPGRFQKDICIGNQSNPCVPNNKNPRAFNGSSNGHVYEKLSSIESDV

Test system in the first series: not given
Experiment: not given
Conditions: not given
On to `Cl.Cl.NCC(O)CNc1cc(-c2ccc(Cl)cc2)nc2ccccc12` (racemic), for which the melting point was 283 to 287 °C.

As for `C[C@H](O)CNc1cc(-c2ccc3c(c2)CCO3)nc2ccccc12.Cl`, the melting point was in the range of 236 to 242 °C.

For the compound `CC(C)NCC(O)COc1cc(-c2ccccc2)nc2ccccc12` (racemic), the melting point lay within 109 to 111 °C.

Compound `Cl.NCC(O)CNc1cc(-c2ccccc2)nc2ccccc12` (racemic) showed a melting point of 291 to 294 °C.

As for `COc1ccc(-c2cc(N(C)CCO)c3ccccc3n2)cc1.Cl` [Example 46, 2-{[2-(4-Methoxy-phenyl)-quinolin-4-yl]-methyl-amino}-ethanol hydrochloride], the melting point is 201 to 204 °C.

In turn, `Cc1ccc(-c2cc(NC[C@H](C)O)c3ccc(C)cc3n2)cc1.Cl` gave a melting point of 264 to 267 °C.

`Cl.OCC(O)CNc1cc(-c2cc3ccccc3o2)nc2ccccc12` (racemic): the melting point is 263 to 265 °C.

As to `Cl.OCCNc1cc(-c2ccc3c(c2)CCCC3)nc2ccccc12` [Example 18, 2-[2-(5,6,7,8-Tetrahydro-naphthalen-2-yl)-quinolin-4-ylamino]-ethanol hydrochloride], the melting point fell in the range of 250 to 252 °C.

In turn, `OCC(O)CNc1cc(-c2ccc3c(c2)CCO3)nc2ccccc12` (racemic) (as salt: hydrochloride) [Example 32, (RS)-3-[2-(2,3-Dihydro-benzofuran-5-yl)-quinolin-4-ylamino]-propane-1,2-diol hydrochloride] yielded a melting point of 267 to 270 °C.

For the compound `COc1cccc2c(NCC(O)CO)cc(-c3ccccc3)nc12.Cl` (racemic), the melting point is 110 to 116 °C.

`COc1cccc2c(NCCO)cc(-c3ccccc3)nc12.Cl` had a melting point of 205 to 209 °C.

As for `Cl.OCC(O)CNc1cc(-c2ccccc2)nc2ccccc12` (racemic), the melting point was in the range of 225 to 227 °C.

The compound `CNCC(O)COc1cc(-c2ccc(C)cc2)nc2cc(C)ccc12` (racemic) had a melting point of 146 to 150 °C.

`Cc1cccc(-c2cc(NCC(O)CO)c3ccccc3n2)c1.Cl` (racemic) displayed a melting point of 208 to 215 °C.

As to `Cc1ccc(-c2cc(NCC(O)CO)c3ccccc3n2)cc1Cl.Cl` (racemic), the melting point lay in the range of 230 to 231 °C.

`CNCC(O)COc1cc(-c2ccc(OC)cc2)nc2cc(C)ccc12` (racemic) displayed a melting point of 140 to 142 °C.

The compound `Cc1ccc(-c2cc(NCCO)c3ccc(C)cc3n2)cc1.Cl` displayed a melting point of 260 to 263 °C.

`Cl.OCCNc1cc(-c2ccc(Cl)cc2)nc2ccccc12`: the melting point lay within 262 to 264 °C.

`O=C(O)/C=C/C(=O)O.OCC(O)CNc1cc(/C=C/c2ccccc2)nc2ccccc12` (racemic) yielded a melting point of 220 to 222 °C.

Turning to `CNCC(O)COc1cc(-c2ccccc2)nc2cc(Cl)ccc12.Cl` (racemic), the melting point is 192 to 193 °C.

In turn, `Cc1ccc(-c2cc(NCC(O)CN)c3ccccc3n2)cc1.Cl` (racemic) [Example 2, (RS)-1-Amino-3-(2-p-tolyl-quinolin-4-ylamino)-propan-2-ol hydrochloride] came in with a melting point of 264 to 272 °C.

Turning to `CCNCC(O)COc1cc(-c2ccccc2)nc2ccccc12.Cl` (stereo not shown), the melting point was in the range of 170 to 174 °C.

The compound `COc1ccc(-c2cc(NCCO)c3ccc(C)cc3n2)cc1.Cl` registered a melting point of 233 to 238 °C.

Take `Cl.OCC(O)CNc1cc(N2Cc3ccccc3C2)nc2ccccc12` (racemic): the melting point lay in the range of 295 to 301 °C.

`CNCC(O)COc1cc(-c2ccsc2)nc2ccccc12.Cl` (racemic) came in with a melting point of 236 to 238 °C.

`CC(O)CNc1cc(-c2ccccc2)nc2ccccc12.Cl` (racemic) gave a melting point of 251 to 253 °C.

For `Cl.OCC(O)CNc1cc(CCc2ccccc2)nc2ccccc12` (racemic), the melting point was 143 to 145 °C.

Compound `NCC(O)CNc1cc(-c2ccc(Cl)cc2)nc2ccccc12` (racemic) showed a melting point of 283 to 287 °C.

The next series has as its target T1, NMDA receptor (Rattus norvegicus, UniProt P35439+Q00960).
T1 construct: Membranes were prepared by homogenization of the whole brain minus cerebellum and medulla oblongata; from tissue; host or cells: rat whole brain minus cerebellum and medulla oblongata, membranes
As to the kind of experiment: 3H-Ro 25-6981 binding (displacement, rat brain membranes). The settings on record: displacement of 5 nM 3H-Ro 25-6981; rat whole brain minus cerebellum and medulla oblongata membranes; 2 hours at 4° C., pH 7.4. As for the experimental part: 3H-Ro 25-6981 binding (Ro 25-6981 is [R-(R*,S*)]-a-(4-Hydroxy-phenyl)-b-methyl-4-(phenyl-methyl)-1-piperidine propanol)
Male Füllinsdorf albino rats weighing between 150-200 g were used. Membranes were prepared by homogenization of the whole brain minus cerebellum and medulla oblongata with a Polytron (10 000 rpm, 30 seconds), in 25 volumes of a cold Tris-HCl 50 mM, EDTA 10 mM, pH 7.1 buffer. The homogenate was centrifuged at 48.000 g for 10 minutes at 4° C. The pellet was resuspended using the Polytron in the same volume of buffer and the homogenate was incubated at 37° C. for 10 minutes. After centrifugation the pellet was homogenized in the same buffer and frozen at −80° C. for at least 16 hours but not more than 10 days. For the binding assay the homogenate was thawed at 37° C., centrifuged and the pellet was washed three times as above in a Tris-HCl 5 mM, pH 7.4 cold buffer. The final pellet was resuspended in the same buffer and used at a final concentration of […].
3H-Ro 25-6981 binding experiments were performed using a Tris-HCl 50 mM, pH 7.4 buffer. For displacement experiments 5 nM of 3H-Ro 25-6981 were used and non specific binding was measured using 10 mM of tetrahydroisoquinoline and usually it accounts for 10% of the total. The incubation time was 2 hours at 4° C. and the assay was stopped by filtration on Whatmann GF/B glass fiber filters (Unifilter-96, Packard, Zürich, Switzerland). The filters were washed 5 times with cold buffer. The radioactivity on the filter was counted on a Packard Top-count microplate scintillation counter after addition of […] of microscint 40 (Canberra Packard S.A., Zürich, Switzerland).
The effects of compounds were measured using a minimum of 8 concentrations and repeated at least once. The pooled normalized values were analyzed using a non-linear regression calculation program which provide IC50) with their relative upper and lower 95% confidence limits (RS1, BBN, USA).
`COc1ccc(-c2cc(N(C)CCO)c3ccccc3n2)cc1.Cl` [Example 46, 2-{[2-(4-Methoxy-phenyl)-quinolin-4-yl]-methyl-amino}-ethanol hydrochloride] had a 50% inhibitory concentration (IC50) of 130 nM.

Compound `CNCC(O)CNc1cc(-c2ccc(OC)cc2)nc2ccccc12` (racemic) [Example 77, (RS)-1-[2-(4-Methoxy-phenyl)-quinolin-4-ylamino]-3-methylamino-propan-2-ol hydrochloride] had an IC50 of 58 nM.

For `Cl.OCCNc1cc(-c2ccc3c(c2)CCCC3)nc2ccccc12` [Example 18, 2-[2-(5,6,7,8-Tetrahydro-naphthalen-2-yl)-quinolin-4-ylamino]-ethanol hydrochloride], the IC50 was 40 nM.

`NCC(O)CNc1cc(N2CCc3ccccc3C2)nc2ccccc12` (racemic) [Example 10, (RS)-1-Amino-3-[2-(3,4-dihydro-1H-isoquinolin-2-yl)-quinolin-4-ylamino]-propan-2-ol hydrochloride] returned a concentration for half-maximal inhibition (IC50) of 30 nM.

Compound `Cc1ccc(-c2cc(NCC(O)CN)c3ccccc3n2)cc1.Cl` (racemic) [Example 2, (RS)-1-Amino-3-(2-p-tolyl-quinolin-4-ylamino)-propan-2-ol hydrochloride] had an IC50 of 20 nM.

`OCC(O)CNc1cc(-c2ccc3c(c2)CCO3)nc2ccccc12` (racemic) [Example 32, (RS)-3-[2-(2,3-Dihydro-benzofuran-5-yl)-quinolin-4-ylamino]-propane-1,2-diol hydrochloride] yielded a half-inhibitory concentration (IC50) of 66 nM.
